Test results: patent US7365057B2, “Modified 2′ and 3′-nucleoside prodrugs for treating Flavivridae infections” (priority 2002, dated 2008)

Experiments:
HCV = conditions: ribavirin alone; Davis, Gastroenterology 2000; cited from earlier work
[1] = test system: Vero 76, African green monkey kidney cells

Molecule	effect on serum levels of HCV-RNA (HCV)	patients in whom serum amino transferase levels are reduced to normal (HCV) [%]	CC50 (MT-4) [µM]	CC50 (BHK) [µM]	CC50 [1] [µM]
NC(=O)c1ncn([C@@H]2O[C@H](CO)[C@@H](O)[C@H]2O)n1 [Ribavirin, 1-β-D-ribofuranosyl-1-1,2,4-triazole-3-carboxamide]	does not lower serum levels of HCV-RNA	40	–	–	–
β-D-2′-C-methyl-7-methyl-6-phenyl-3,3a,5,8a-tetrahydro-1,3,4,5,7a-penta-aza-s-indacen-8-one [Compound F]	–	–	> 100	> 100	> 100
